Measurements: the supplement of paper PMC10307832

Each cell line was assayed with CCOC1=CC=CC=C1N=NC2=C(NN(C2=O)C3=NC(=CS3)C4=CC=CC=C4)C [BAM7] + CC(=O)c1c(C)c2cnc(Nc3ccc(N4CCNCC4)cn3)nc2n(C2CCCC2)c1=O [Palbociclib] (partner 0.5 µM) (assay: relative viability (nuclei count vs DMSO), 5 days (fraction); higher = more cells survive). Settings: first compound 0.5 µM.
Summary of the method: (§1)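 Lung cancer cell lines were pin-tool dosed in 1536-well plates on the day after seeding, with either a lone drug or a fixed anchor-drug dose plus five library-drug doses (not always all listed) in √10 steps. Nuclei were counted on 4× images after 5 days. Relative viability is the ratio of treated-well to vehicle-well nuclei counts, with each value a median of duplicate plates.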
Work on NCI-H322M yielded a relative viability of 0.527. Cell Line LCLC-97TM1 has a relative viability of 0.272. With NCI-H2009 the relative viability was 0.189. A-427 showed a relative viability of 0.507. With NCI-H441 the relative viability was 0.285. NCI-H661 gave a relative viability of 0.443. For NCI-H1734, the relative viability was 0.38. Work on NCI-H460 yielded a relative viability of 0.179. For NCI-H2347, the relative viability was 0.426. In the case of SK-LU-1, the relative viability was 0.399. Work on NCI-H1395 yielded a relative viability of 0.578. In the case of 201T, the relative viability was 0.358. With NCI-H1915 the relative viability was 0.598. With HCC-827 the relative viability was 0.532. LXF-289 gave a relative viability of 0.63. NCI-H23 gave a relative viability of 0.612. Cell Line NCI-H647 has a relative viability of 0.506. CAL-12T showed a relative viability of 0.593. NCI-H1651 gave a relative viability of 0.528. For EPLC-272H, the relative viability was 0.349. For NCI-H2228, the relative viability was 0.853. NCI-H1792 was tested, and the relative viability was 0.642. NCI-H1355 showed a relative viability of 0.415. In the case of NCI-H3122, the relative viability was 0.174. With NCI-H1437 the relative viability was 0.318. In the case of NCI-H1755, the relative viability was 0.462. Cell Line NCI-H2023 has a relative viability of 0.375. HCC-15 showed a relative viability of 0.621. Cell Line NCI-H1793 has a relative viability of 0.252. In the case of PC-14, the relative viability was 0.592. In the case of EKVX, the relative viability was 0.444. Work on LC-2-ad yielded a relative viability of 0.487. In the case of NCI-H1944, the relative viability was 0.365. NCI-H1975 showed a relative viability of 0.565. RERF-LC-KJ was tested, and the relative viability was 0.953. For ABC-1, the relative viability was 0.548. NCI-H650 showed a relative viability of 0.324.

Same assay, conditions: first compound 5 µM
NCI-H322M showed a relative viability of 0.564. For LCLC-97TM1, the relative viability was 0.185. In the case of NCI-H2009, the relative viability was 0.189. Cell Line A-427 has a relative viability of 0.49. For NCI-H441, the relative viability was 0.191. Work on NCI-H661 yielded a relative viability of 0.433. NCI-H1734 gave a relative viability of 0.332. NCI-H460 showed a relative viability of 0.148. For NCI-H2347, the relative viability was 0.457. Work on SK-LU-1 yielded a relative viability of 0.405. NCI-H1395 gave a relative viability of 0.627. 201T gave a relative viability of 0.336. For NCI-H1915, the relative viability was 0.548. With HCC-827 the relative viability was 0.467. LXF-289 gave a relative viability of 0.62. NCI-H23 was tested, and the relative viability was 0.479. NCI-H647 was tested, and the relative viability was 0.431. For CAL-12T, the relative viability was 0.372. In the case of NCI-H1651, the relative viability was 0.52. With EPLC-272H the relative viability was 0.315. NCI-H2228 gave a relative viability of 0.966. In the case of NCI-H1792, the relative viability was 0.687. NCI-H1355 showed a relative viability of 0.385. NCI-H3122 gave a relative viability of 0.225. NCI-H1437 showed a relative viability of 0.326. Work on NCI-H1755 yielded a relative viability of 0.466. NCI-H2023 was tested, and the relative viability was 0.316. Work on HCC-15 yielded a relative viability of 0.694. NCI-H1793 gave a relative viability of 0.291. Work on PC-14 yielded a relative viability of 0.479. EKVX was tested, and the relative viability was 0.39. Cell Line LC-2-ad has a relative viability of 0.478. Cell Line NCI-H1944 has a relative viability of 0.366. Work on NCI-H1975 yielded a relative viability of 0.555. In the case of RERF-LC-KJ, the relative viability was 0.876. ABC-1 was tested, and the relative viability was 0.667. In the case of NCI-H358, the relative viability was 0.129. NCI-H650 gave a relative viability of 0.32.

Same assay, conditions: first compound 15.81 µM
With NCI-H322M the relative viability was 0.524. NCI-H2009 was tested, and the relative viability was 0.228. Work on A-427 yielded a relative viability of 0.498. In the case of NCI-H441, the relative viability was 0.205. In the case of NCI-H661, the relative viability was 0.422. NCI-H1734 showed a relative viability of 0.364. Cell Line NCI-H460 has a relative viability of 0.216. NCI-H2347 showed a relative viability of 0.425. In the case of SK-LU-1, the relative viability was 0.43. Work on NCI-H1395 yielded a relative viability of 0.606. For 201T, the relative viability was 0.307. NCI-H1915 gave a relative viability of 0.516. Work on HCC-827 yielded a relative viability of 0.493. Work on LXF-289 yielded a relative viability of 0.616. NCI-H23 gave a relative viability of 0.466. NCI-H647 showed a relative viability of 0.509. In the case of CAL-12T, the relative viability was 0.419. For NCI-H1651, the relative viability was 0.512. Work on EPLC-272H yielded a relative viability of 0.327. Cell Line NCI-H2228 has a relative viability of 1.19. NCI-H1792 was tested, and the relative viability was 0.624. With NCI-H1355 the relative viability was 0.377. For NCI-H3122, the relative viability was 0.186. NCI-H1437 was tested, and the relative viability was 0.306. NCI-H1755 was tested, and the relative viability was 0.439. With NCI-H2023 the relative viability was 0.293. HCC-15 was tested, and the relative viability was 0.614. Cell Line NCI-H1793 has a relative viability of 0.251. PC-14 was tested, and the relative viability was 0.335. For EKVX, the relative viability was 0.337. Cell Line LC-2-ad has a relative viability of 0.545. For NCI-H1944, the relative viability was 0.281. For NCI-H1975, the relative viability was 0.519. Cell Line RERF-LC-KJ has a relative viability of 0.609. ABC-1 showed a relative viability of 0.774. For NCI-H358, the relative viability was 0.141. In the case of NCI-H650, the relative viability was 0.272.

Same assay, conditions: first compound 50 µM
NCI-H322M was tested, and the relative viability was 0.509. With LCLC-97TM1 the relative viability was 0.186. In the case of NCI-H2009, the relative viability was 0.29. A-427 showed a relative viability of 0.532. NCI-H441 was tested, and the relative viability was 0.267. NCI-H661 showed a relative viability of 0.422. NCI-H1734 showed a relative viability of 0.318. NCI-H460 gave a relative viability of 0.165. For NCI-H2347, the relative viability was 0.367. For SK-LU-1, the relative viability was 0.453. With NCI-H1395 the relative viability was 0.614. For 201T, the relative viability was 0.335. Cell Line NCI-H1915 has a relative viability of 0.501. Work on HCC-827 yielded a relative viability of 0.481. In the case of LXF-289, the relative viability was 0.616. Cell Line NCI-H23 has a relative viability of 0.519. NCI-H647 showed a relative viability of 0.447. CAL-12T showed a relative viability of 0.513. In the case of NCI-H1651, the relative viability was 0.508. Cell Line EPLC-272H has a relative viability of 0.351. Work on NCI-H2228 yielded a relative viability of 1.07. NCI-H1792 showed a relative viability of 0.66. Cell Line NCI-H1355 has a relative viability of 0.416. In the case of NCI-H3122, the relative viability was 0.198. With NCI-H1437 the relative viability was 0.326. NCI-H1755 was tested, and the relative viability was 0.436. For NCI-H2023, the relative viability was 0.327. With HCC-15 the relative viability was 0.686. Work on NCI-H1793 yielded a relative viability of 0.34. PC-14 gave a relative viability of 0.42. EKVX gave a relative viability of 0.429. LC-2-ad showed a relative viability of 0.485. Work on NCI-H1944 yielded a relative viability of 0.37. In the case of NCI-H1975, the relative viability was 0.652. For RERF-LC-KJ, the relative viability was 0.63. Cell Line ABC-1 has a relative viability of 0.584. NCI-H358 was tested, and the relative viability was 0.137. Work on NCI-H650 yielded a relative viability of 0.318.

What follows are cell lines tested with CCOC1=CC=CC=C1N=NC2=C(NN(C2=O)C3=NC(=CS3)C4=CC=CC=C4)C [BAM7] + COc1cccc2cc(-c3nc([C@H]4CC[C@H](C(=O)O)CC4)n4ncnc(N)c34)[nH]c12 [OSI-027] (partner 0.5 µM) in the same assay as above. Settings: first compound 0.5 µM.
Summary of the method: as §1
NCI-H322M gave a relative viability of 0.576. Work on LCLC-97TM1 yielded a relative viability of 0.699. NCI-H2009 gave a relative viability of 0.68. Cell Line A-427 has a relative viability of 0.58. In the case of NCI-H441, the relative viability was 0.578. Cell Line NCI-H661 has a relative viability of 0.662. With NCI-H1734 the relative viability was 0.606. NCI-H460 was tested, and the relative viability was 0.525. NCI-H2347 was tested, and the relative viability was 0.478.
